Measurements from ChEMBL document CHEMBL4002566, “S-substituted 3,5-dinitrophenyl 1,3,4-oxadiazole-2-thiols and tetrazole-5-thiols as highly efficient antitubercular agents” (Eur J Med Chem, 2017).
≈ marks a conversion by molar mass, not a printed value.

How the values were obtained:
[1] = system: Aspergillus fumigatus; experiment: Antifungal activity against Aspergillus fumigatus 231 after 48 hrs by broth microdilution method; format: functional; details: Aspergillus fumigatus, 231, 48 h
[2] = system: Staphylococcus aureus; experiment: Antibacterial activity against methicillin-resistant Staphylococcus aureus HK5996/08 after 48 hrs by broth microdilution method; format: functional; details: HK5996/08, 48 h
[3] = system: Candida tropicalis; experiment: Antifungal activity against Candida tropicalis 156 after 48 hrs by broth microdilution method; format: functional; details: Candida tropicalis, 156, 48 h
[4] = system: Klebsiella pneumoniae; experiment: Antibacterial activity against Klebsiella pneumoniae HK11750/08 after 48 hrs by broth microdilution method; format: functional; details: HK11750/08, 48 h
[5] = system: Klebsiella pneumoniae; experiment: Antibacterial activity against Klebsiella pneumoniae HK11750/08 after 24 hrs by broth microdilution method; format: functional; details: HK11750/08, 24 h
[6] = system: Pseudomonas aeruginosa; experiment: Antibacterial activity against Pseudomonas aeruginosa ATCC 9027 after 48 hrs by broth microdilution method; format: functional; details: ATCC 9027, 48 h
[7] = system: Mycobacterium tuberculosis; experiment: Antimycobacterial activity against Mycobacterium tuberculosis CNCTC My 331/88 after 21 days by micromethod; format: functional; details: CNCTC My 331/88, 504 h
[8] = system: Staphylococcus epidermidis; experiment: Antibacterial activity against Staphylococcus epidermidis HK6996/08 after 24 hrs by broth microdilution method; format: functional; details: HK6996/08, 24 h
[9] = system: Trichophyton mentagrophytes; experiment: Antifungal activity against Trichophyton mentagrophytes 445 after 120 hrs by broth microdilution method; format: functional; details: Trichophyton mentagrophytes, 445, 120 h
[10] = system: Staphylococcus epidermidis; experiment: Antibacterial activity against Staphylococcus epidermidis HK6996/08 after 48 hrs by broth microdilution method; format: functional; details: HK6996/08, 48 h
[11] = system: Nakaseomyces glabratus; experiment: Antifungal activity against Candida glabrata 20/I after 48 hrs by broth microdilution method; format: functional
[12] = system: Nakaseomyces glabratus; experiment: Antifungal activity against Candida glabrata 20/I after 24 hrs by broth microdilution method; format: functional
[13] = Cytotoxicity against human A431 cells assessed as cell viability at 30 uM after 48 hrs by MTS assay relative to control; format: cell-based, A-431; details: read-out: Activity
[14] = system: Trichophyton mentagrophytes; experiment: Antifungal activity against Trichophyton mentagrophytes 445 after 72 hrs by broth microdilution method; format: functional; details: Trichophyton mentagrophytes, 445, 72 h
[15] = system: A-431; experiment: Cytotoxicity against human A431 cells assessed as cell viability after 48 hrs by MTS assay; format: cell-based; details: A-431, 48 h
[16] = system: Mycobacterium avium; experiment: Antimycobacterial activity against Mycobacterium avium CNCTC My 330/88 after 14 days by micromethod; format: functional; details: CNCTC My 330/88, 336 h
[17] = system: Candida tropicalis; experiment: Antifungal activity against Candida tropicalis 156 after 24 hrs by broth microdilution method; format: functional; details: Candida tropicalis, 156, 24 h
[18] = system: Mycobacterium kansasii; experiment: Antimycobacterial activity against Mycobacterium kansasii CNCTC My 235/80 after 21 days by micromethod; format: functional; details: CNCTC My 235/80, 504 h
[19] = system: Klebsiella pneumoniae; experiment: Antibacterial activity against extended spectrum beta-lactamase producing Klebsiella pneumoniae HK14368/08 after 48 hrs by broth microdilution method; format: functional; details: HK14368/08, 48 h
[20] = system: Klebsiella pneumoniae; experiment: Antibacterial activity against extended spectrum beta-lactamase producing Klebsiella pneumoniae HK14368/08 after 24 hrs by broth microdilution method; format: functional; details: HK14368/08, 24 h
[21] = system: Mycobacterium avium; experiment: Antimycobacterial activity against Mycobacterium avium CNCTC My 330/88 after 21 days by micromethod; format: functional; details: CNCTC My 330/88, 504 h
[22] = system: Lichtheimia corymbifera; experiment: Antifungal activity against Absidia corymbifera 272 after 48 hrs by broth microdilution method; format: functional; details: Lichtheimia corymbifera, 272, 48 h
[23] = system: Escherichia coli; experiment: Antibacterial activity against Escherichia coli ATCC 8739 after 24 hrs by broth microdilution method; format: functional; details: ATCC 8739, 24 h
[24] = system: MDCK; experiment: Cytotoxicity against MDCK cells assessed as cell viability after 48 hrs by MTS assay; format: cell-based; details: Canis lupus familiaris
[25] = Cytotoxicity against MDCK cells assessed as cell viability at 30 uM after 48 hrs by MTS assay relative to control; format: cell-based, Canis lupus familiaris; details: dog, read-out: Activity
[26] = system: Enterococcus sp.; experiment: Antibacterial activity against Enterococcus sp. HK14365/08 after 24 hrs by broth microdilution method; format: functional; details: HK14365/08, 24 h
[27] = system: Huh-7; experiment: Cytotoxicity against human HuH7 cells assessed as cell viability after 48 hrs by MTS assay; format: cell-based; details: Huh-7, 48 h
[28] = system: Pichia kudriavzevii; experiment: Antifungal activity against Candida krusei E28 after 24 hrs by broth microdilution method; format: functional; details: E28, 24 h
[29] = system: Trichosporon asahii; experiment: Antifungal activity against Trichosporon asahii 1188 after 48 hrs by broth microdilution method; format: functional; details: Trichosporon asahii, 1188, 48 h
[30] = system: Aspergillus fumigatus; experiment: Antifungal activity against Aspergillus fumigatus 231 after 24 hrs by broth microdilution method; format: functional; details: Aspergillus fumigatus, 231, 24 h
[31] = system: Candida albicans; experiment: Antifungal activity against Candida albicans ATCC 44859 after 48 hrs by broth microdilution method; format: functional; details: ATCC 44859, 48 h
[32] = system: Pseudomonas aeruginosa; experiment: Antibacterial activity against Pseudomonas aeruginosa ATCC 9027 after 24 hrs by broth microdilution method; format: functional; details: ATCC 9027, 24 h
[33] = system: Staphylococcus aureus; experiment: Antibacterial activity against Staphylococcus aureus ATCC 6538 after 48 hrs by broth microdilution method; format: functional; details: ATCC 6538, 48 h
[34] = system: HepG2; experiment: Cytotoxicity against human HepG2 cells assessed as cell viability after 48 hrs by MTS assay; format: cell-based; details: HepG2, 48 h
[35] = system: Mycobacterium kansasii; experiment: Antimycobacterial activity against Mycobacterium kansasii 6509/96 clinical isolate after 21 days by micromethod; format: functional; details: 6509/96, 504 h
[36] = Selectivity index, ratio of IC50 for human HepG2 cells to MIC for Mycobacterium tuberculosis; format: toxicity; details: read-out: Selectivity Index
[37] = system: Mycobacterium kansasii; experiment: Antimycobacterial activity against Mycobacterium kansasii 6509/96 clinical isolate after 7 days by micromethod; format: functional; details: 6509/96, 168 h
[38] = system: Escherichia coli; experiment: Antibacterial activity against Escherichia coli ATCC 8739 after 48 hrs by broth microdilution method; format: functional; details: ATCC 8739, 48 h
[39] = system: Mycobacterium kansasii; experiment: Antimycobacterial activity against Mycobacterium kansasii CNCTC My 235/80 after 7 days by micromethod; format: functional; details: CNCTC My 235/80, 168 h
[40] = Cytotoxicity against human HuH7 cells assessed as cell viability at 30 uM after 48 hrs by MTS assay relative to control; format: cell-based, Huh-7; details: read-out: Activity
[41] = system: Mycobacterium kansasii; experiment: Antimycobacterial activity against Mycobacterium kansasii CNCTC My 235/80 after 14 days by micromethod; format: functional; details: CNCTC My 235/80, 336 h
[42] = system: Staphylococcus aureus; experiment: Antibacterial activity against methicillin-resistant Staphylococcus aureus HK5996/08 after 24 hrs by broth microdilution method; format: functional; details: HK5996/08, 24 h
[43] = Cytotoxicity against human HepG2 cells assessed as cell viability at 30 uM after 48 hrs by MTS assay relative to control; format: cell-based; details: read-out: Activity
[44] = system: Lichtheimia corymbifera; experiment: Antifungal activity against Absidia corymbifera 272 after 24 hrs by broth microdilution method; format: functional; details: Lichtheimia corymbifera, 272, 24 h
[45] = system: Pichia kudriavzevii; experiment: Antifungal activity against Candida krusei E28 after 48 hrs by broth microdilution method; format: functional; details: E28, 48 h
[46] = system: Candida albicans; experiment: Antifungal activity against Candida albicans ATCC 44859 after 24 hrs by broth microdilution method; format: functional; details: ATCC 44859, 24 h
[47] = system: Enterococcus sp.; experiment: Antibacterial activity against Enterococcus sp. HK14365/08 after 48 hrs by broth microdilution method; format: functional; details: HK14365/08, 48 h
[48] = system: Mycobacterium kansasii; experiment: Antimycobacterial activity against Mycobacterium kansasii 6509/96 clinical isolate after 14 days by micromethod; format: functional; details: 6509/96, 336 h
[49] = system: Trichosporon asahii; experiment: Antifungal activity against Trichosporon asahii 1188 after 24 hrs by broth microdilution method; format: functional; details: Trichosporon asahii, 1188, 24 h
[50] = system: Mycobacterium tuberculosis; experiment: Antimycobacterial activity against Mycobacterium tuberculosis CNCTC My 331/88 after 14 days by micromethod; format: functional; details: CNCTC My 331/88, 336 h
[51] = system: Staphylococcus aureus; experiment: Antibacterial activity against Staphylococcus aureus ATCC 6538 after 24 hrs by broth microdilution method; format: functional; details: ATCC 6538, 24 h

COc1ccc(CSc2nnc(-c3cc([N+](=O)[O-])cc([N+](=O)[O-])c3)o2)cc1
MIC [1]: > 500 µM | MIC [2]: > 500 µM | MIC [3]: > 500 µM | MIC [4]: > 500 µM | MIC [5]: > 500 µM | MIC [6]: > 500 µM | MIC [7]: 0.06 µM (≈ 0.0233 µg/mL) | MIC [8]: > 500 µM | MIC [9]: > 500 µM | MIC [10]: > 500 µM | MIC [11]: > 500 µM | MIC [12]: > 500 µM | viability at 48 h, 30 µM [13]: 93% | MIC [14]: > 500 µM | IC50 [15]: > 30 µM | MIC [16]: 4 µM (≈ 1.55 µg/mL) | MIC [17]: > 500 µM | MIC [18]: 0.125 µM (≈ 0.0485 µg/mL) | MIC [19]: > 500 µM | MIC [20]: > 500 µM | MIC [21]: 4 µM (≈ 1.55 µg/mL) | MIC [22]: > 500 µM | MIC [23]: > 500 µM | IC50 [24]: > 30 µM | viability at 48 h, 30 µM [25]: 119% | MIC [26]: > 500 µM | IC50 [27]: > 30 µM | MIC [28]: > 500 µM | MIC [29]: > 500 µM | MIC [30]: > 500 µM | MIC [31]: > 500 µM | MIC [32]: > 500 µM | MIC [33]: > 500 µM | IC50 [34]: > 30 µM | MIC [35]: 0.25 µM (≈ 0.0971 µg/mL) | selectivity ratio [36]: > 1000 | MIC [37]: 0.125 µM (≈ 0.0485 µg/mL) | MIC [38]: > 500 µM | MIC [39]: 0.125 µM (≈ 0.0485 µg/mL) | viability at 48 h, 30 µM [40]: 118% | MIC [41]: 0.125 µM (≈ 0.0485 µg/mL) | MIC [42]: > 500 µM | viability at 48 h, 30 µM [43]: 126% | MIC [44]: > 500 µM | MIC [45]: > 500 µM | MIC [46]: > 500 µM | MIC [47]: > 500 µM | MIC [48]: 0.25 µM (≈ 0.0971 µg/mL) | MIC [49]: > 500 µM | MIC [50]: 0.03 µM (≈ 0.0117 µg/mL) | MIC [51]: > 500 µM

O=[N+]([O-])c1cc(-c2nnc(SCc3cccc(Cl)c3)o2)cc([N+](=O)[O-])c1
MIC [7]: 0.06 µM (≈ 0.0236 µg/mL) | viability at 48 h, 30 µM [13]: 105% | IC50 [15]: > 30 µM | MIC [16]: 4 µM (≈ 1.57 µg/mL) | MIC [18]: 0.06 µM (≈ 0.0236 µg/mL) | MIC [21]: 8 µM (≈ 3.14 µg/mL) | IC50 [24]: > 30 µM | viability at 48 h, 30 µM [25]: 105% | IC50 [27]: > 30 µM | IC50 [34]: > 30 µM | MIC [35]: 0.06 µM (≈ 0.0236 µg/mL) | selectivity ratio [36]: > 1000 | MIC [37]: 0.03 µM (≈ 0.0118 µg/mL) | MIC [39]: 0.06 µM (≈ 0.0236 µg/mL) | viability at 48 h, 30 µM [40]: 158% | MIC [41]: 0.06 µM (≈ 0.0236 µg/mL) | viability at 48 h, 30 µM [43]: 129% | MIC [48]: 0.06 µM (≈ 0.0236 µg/mL) | MIC [50]: 0.03 µM (≈ 0.0118 µg/mL)
